Values of other authors as cited in patent US11173064B2, “High-precision drug delivery by dual-domain ocular device” (LYNTHERA CORPORATION, priority 2016, dated 2021).
Counter-ions that a name gives are not always drawn.

Settings: octanol/water

CC(C)(C)NC[C@H](O)COc1nsnc1N1CCOCC1 [timolol maleate]
log P: ~1.4

CCNC(=O)CCC/C=C\C[C@@H]1[C@@H](/C=C/[C@@H](O)CCc2ccccc2)[C@H](O)C[C@@H]1O [bimatoprost]
log P: ~3.2
